Read-outs that look alike come from different tables or passages of the source.
What was measured:
[1] = tested on: human multiple myeloma cell line, OPM-2; assay: Cell viability assay (OPM-2 10 FBS), CellTiter-Glo; format: cell-based
In short: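 Steps: plate cells at 3000/well in 10% FBS growth medium, add serially diluted compound, incubate 16 h at 37 °C with 5% CO2, add detection reagent and read luminescence after 25 min. A 4-parameter logistic model gives IC50.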

[2] = biological target: recombinant human Mcl-1 (residues 171-327) / Bim interaction (Homo sapiens (Human), UniProt Q07820); assay: biochemical; format: binding; settings: read-out: Mcl-1 HTRF IC50
[3] = Homo sapiens, OPM-2, 16 h, read-out: OPM-2 10% FBS IC50 IP, OPM-2 cells, 10% FBS, 16 h, CellTiter-Glo
[4] = TR-FRET, Mcl-1(171-327) / biotin-Bim (51-76)
[5] = read-out: OPM-2 10% FBS IC50 IP, OPM-2 cells, 10% FBS, 16 h incubation
[6] = 0.1 nM Mcl-1(171-327), 0.05 nM biotin-Bim (51-76)

Chain of recombinant human Mcl-1 (residues 171-327) / Bim interaction (Q07820 171-327): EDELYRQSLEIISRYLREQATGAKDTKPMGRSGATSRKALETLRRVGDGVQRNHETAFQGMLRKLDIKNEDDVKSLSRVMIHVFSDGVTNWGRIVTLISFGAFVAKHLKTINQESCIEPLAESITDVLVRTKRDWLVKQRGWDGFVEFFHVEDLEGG

Molecule | IC50 [1, 3] [nM] | IC50 [2, 4] [nM] | IC50 [1, 5] [nM] | IC50 [2, 6] [nM]
CO[C@@]1(Cc2nc(CN3CCOCC3)c(C)o2)/C=C/C[C@H](C)[C@@H](C)S(=O)(=O)NC(=O)c2ccc3c(c2)N(C[C@@H]2CC[C@H]21)C[C@@]1(CCCc2cc(Cl)ccc21)CO3 [Example 100587, (1S,3′R,6′R,7′S,8′E,11′S,12′R)-6-chloro-7′-methoxy-11′,12′-dimethyl-7′-((5-methyl-4-(4-morpholinylmethyl)-1,3-oxazol-2-yl)methyl)-3,4-dihydro-2H,15′H-spiro[naphthalene-1,22′-[20]oxa[13]thia[1,14]diazatetracyclo [14.7.2.0~3,6~.0~19,24~]pentacosa[8,16,18,24]tetraen]-15′-one 13′,13′-dioxide] | 177 | 0.136 |  | 
CO[C@@]1(COCCN2CCOCC2)/C=C/C[C@H](C)[C@@H](C)S(=O)(=O)NC(=O)c2ccc3c(c2)N(C[C@@H]2CC[C@H]21)C[C@@]1(CCCc2cc(Cl)ccc21)CO3 [Example 100590, (1S,3′R,6′R,7′S,8′E,11′S,12′R)-6-chloro-7′-methoxy-11′,12′-dimethyl-7′-((2-(4-morpholinyl)ethoxy)methyl)-3,4-dihydro-2H,15′H-spiro[naphthalene-1,22′-[20]oxa[13]thia[1,14]diazatetracyclo [14.7.2.0~3,6~.0~19,24~]pentacosa[8,16,18,24]tetraen]-15′-one 13′,13′-dioxide] | 501 | 0.086 |  | 
CO[C@]1(CCN2CCN3CCCC[C@@H]3C2)/C=C/C[C@H](C)[C@@H](C)S(=O)(=O)NC(=O)c2ccc3c(c2)N(C[C@@H]2CC[C@H]21)C[C@@]1(CCCc2cc(Cl)ccc21)CO3 [Example 100591, (1S,3′R,6′R,7′R,8′E,11′S,12′R)-6-chloro-7′-methoxy-11′,12′-dimethyl-7′-(2-((9aR)-octahydro-2H-pyrido[1,2-a]pyrazin-2-yl)ethyl)-3,4-dihydro-2H,15′H-spiro[naphthalene-1,22′-[20]oxa[13]thia[1,14]diazatetracyclo [14.7.2.0~3,6~.0~19,24~]pentacosa[8,16,18,24]tetraen]-15′-one 13′,13′-dioxide] | 60 | 0.075 |  | 
CO[C@]1(CCN2CCN3CCCC[C@@H]3C2)CCC[C@H](C)[C@@H](C)S(=O)(=O)NC(=O)c2ccc3c(c2)N(C[C@@H]2CC[C@H]21)C[C@@]1(CCCc2cc(Cl)ccc21)CO3 [Example 100592, (1S,3′R,6′R,7′S,11′S,12′R)-6-chloro-7′-methoxy-11′,12′-dimethyl-7′-(2-((9aR)-octahydro-2H-pyrido[1,2-a]pyrazin-2-yl)ethyl)-3,4-dihydro-2H,15′H-spiro[naphthalene-1,22′-[20]oxa[13]thia[1,14]diazatetracyclo [14.7.2.0~3,6~.0~19,24~]pentacosa[16,18,24]trien]-15′-one 13′,13′-dioxide] | 139 | 0.275 |  | 
CO[C@]1(COCCN2CCOCC2)/C=C/C[C@H](C)[C@@H](C)S(=O)(=O)NC(=O)c2ccc3c(c2)N(C[C@@H]2CC[C@H]21)C[C@@]1(CCCc2cc(Cl)ccc21)CO3 [Example 100594, (1S,3′R,6′R,7′R,8′E,11′S,12′R)-6-chloro-7′-methoxy-11′,12′-dimethyl-7′-((2-(4-morpholinyl)ethoxy)methyl)-3,4-dihydro-2H,15′H-spiro[naphthalene-1,22′-[20]oxa[13]thia[1,14]diazatetracyclo [14.7.2.0~3,6~.0~19,24~]pentacosa[8,16,18,24]tetraen]-15′-one 13′,13′-dioxide] | 241 | 0.143 |  | 
CCCO[C@]1(C=O)/C=C/C[C@H](C)[C@@H](C)S(=O)(=O)NC(=O)c2ccc3c(c2)N(C[C@@H]2CC[C@H]21)C[C@@]1(CCCc2cc(Cl)ccc21)CO3 [Example 100602, (1S,3′R,6′R,7′R,8′E,11′S,12′R)-6-chloro-11′,12′-dimethyl-15′-oxo-7′-propoxy-3,4-dihydro-2H-spiro[naphthalene-1,22′-[20]oxa[13]thia[1,14]diazatetracyclo [14.7.2.0~3,6~.0~19,24~]pentacosa[8,16,18,24]tetraene]-7′-carbaldehyde 13′,13′-dioxide] | 2330 | 0.8 |  | 
CC(C)CO[C@]1(C=O)/C=C/C[C@H](C)[C@@H](C)S(=O)(=O)NC(=O)c2ccc3c(c2)N(C[C@@H]2CC[C@H]21)C[C@@]1(CCCc2cc(Cl)ccc21)CO3 [Example 100603, (1S,3′R,6′R,7′R,8′E,11′S,12′R)-6-chloro-11′,12′-dimethyl-7′-(2-methylpropoxy)-15′-oxo-3,4-dihydro-2H-spiro[naphthalene-1,22′-[20]oxa[13]thia[1,14]diazatetracyclo [14.7.2.0~3,6~.0~19,24~]pentacosa[8,16,18,24]tetraene]-7′-carbaldehyde 13′,13′-dioxide] | 1570 | 0.651 |  | 
(1 S,3′R,6′R,7′R,8′E,11′S,12′R)-6-chloro-7′-methoxy-11′-methyl-12′-(2-(((2-methyl-2-propanyl)(diphenyl)silyl)oxy)ethyl)-7′-((9aR)-octahydro-2H-pyrido[1,2-a]pyrazin-2-ylmethyl)-3,4-dihydro-2H, 15′H-spiro[naphthalene-1,22′-[20]oxa[13]thia[1,14]diazatetracyclo[14.7.2.0-3,6˜.0˜19,24˜]pentacosa[8,16,18,24]tetraen]-15′-one 13′,13′-dioxide [Example 359] |  |  | > 33300 | 2.08
(1 S,3′R,6′R,7′S,8′E, 11′S,12′R)-6-chloro-11′,12′-dimethyl-7′-(2-methylpropoxy)-7′-((4-(3-oxetanyl)-1-piperazinyl)methyl)-3,4-dihydro-2H,15′H-spiro[naphthalene-1,22′-[20]oxa[13]thia[1,14]diazatetracyclo[14.7.2.0-3,6˜.0˜19,24˜]pentacosa[8,16,18,24]tetraen]-15′-one 13′,13′-dioxide [Example 348] |  |  | 5360 | 2.62
(1S,3′R,6′R,7′R,8′E,11′S,12′R)-6-chloro-12′-(2-(dimethylamino)ethyl)-7′-methoxy-11′-methyl-7′-((9aR)-octahydro-2H-pyrido[1,2-a]pyrazin-2-ylmethyl)-3,4-dihydro-2H,15′H-spiro[naphthalene-1,22′-[20]oxa[13]thia[1,14]diazatetracyclo[14.7.2.0-3,6˜.0˜19,24˜]pentacosa[8,16,18,24]tetraen]-15′-one 13′,13′-dioxide [Example 367] |  |  | 273 | 0.201
(1S,3′R,6′R,7′R,8′E, 11′S,12′R)-6-chloro-12′-(2-hydroxyethyl)-7′-methoxy-11′-methyl-7′-((9aR)-octahydro-2H-pyrido[1,2-a]pyrazin-2-ylmethyl)-3,4-dihydro-2H, 15′H-spiro[naphthalene-1,22′-[20]oxa[13]thia[1,14]diazatetracyclo[14.7.2.0-3,6˜.0˜19,24˜]pentacosa[8,16,18,24]tetraen]-15′-one 13′,13′-dioxide [Example 358] |  |  | 144 | 0.066
(1S,3′R,6′R,7′S,8′E,11′S,12′R)-6-chloro-7′-(2-methoxyethoxy)-11′,12′-dimethyl-7′-((9aR)-octahydro-2H-pyrido[1,2-a]pyrazin-2-ylmethyl)-3,4-dihydro-2H, 15′H-spiro[naphthalene-1,22′-[20]oxa[13]thia[1,14]diazatetracyclo[14.7.2.0-3,6˜.0˜19,24˜]pentacosa[8,16,18,24]tetraen]-15′-one 13′,13′-dioxide [Example 151] |  |  | 462 | 0.843
